Test results taken from US20250340574A1, “MODULATORS OF CYSTIC FIBROSIS TRANSMEMBRANE CONDUCTANCE REGULATOR” (Vertex Pharmaceuticals Incorporated, priority 2022, published 2025).

Target: T1, CFTR (F508del/MF-HBE cells) (Homo sapiens, UniProt P13569, DEL508-508)
T1 construct: human bronchial epithelial (HBE) cells derived from CF subjects heterozygous for F508del and a minimal function CFTR mutation (F508del/MF-HBE); endogenous in cells; host or cells: Primary human bronchial epithelial cells from CF subjects (F508del/MF genotype), differentiated at an air-liquid interface
T1 sequence (P13569 with tags, fused parts or gaps DEL508-508): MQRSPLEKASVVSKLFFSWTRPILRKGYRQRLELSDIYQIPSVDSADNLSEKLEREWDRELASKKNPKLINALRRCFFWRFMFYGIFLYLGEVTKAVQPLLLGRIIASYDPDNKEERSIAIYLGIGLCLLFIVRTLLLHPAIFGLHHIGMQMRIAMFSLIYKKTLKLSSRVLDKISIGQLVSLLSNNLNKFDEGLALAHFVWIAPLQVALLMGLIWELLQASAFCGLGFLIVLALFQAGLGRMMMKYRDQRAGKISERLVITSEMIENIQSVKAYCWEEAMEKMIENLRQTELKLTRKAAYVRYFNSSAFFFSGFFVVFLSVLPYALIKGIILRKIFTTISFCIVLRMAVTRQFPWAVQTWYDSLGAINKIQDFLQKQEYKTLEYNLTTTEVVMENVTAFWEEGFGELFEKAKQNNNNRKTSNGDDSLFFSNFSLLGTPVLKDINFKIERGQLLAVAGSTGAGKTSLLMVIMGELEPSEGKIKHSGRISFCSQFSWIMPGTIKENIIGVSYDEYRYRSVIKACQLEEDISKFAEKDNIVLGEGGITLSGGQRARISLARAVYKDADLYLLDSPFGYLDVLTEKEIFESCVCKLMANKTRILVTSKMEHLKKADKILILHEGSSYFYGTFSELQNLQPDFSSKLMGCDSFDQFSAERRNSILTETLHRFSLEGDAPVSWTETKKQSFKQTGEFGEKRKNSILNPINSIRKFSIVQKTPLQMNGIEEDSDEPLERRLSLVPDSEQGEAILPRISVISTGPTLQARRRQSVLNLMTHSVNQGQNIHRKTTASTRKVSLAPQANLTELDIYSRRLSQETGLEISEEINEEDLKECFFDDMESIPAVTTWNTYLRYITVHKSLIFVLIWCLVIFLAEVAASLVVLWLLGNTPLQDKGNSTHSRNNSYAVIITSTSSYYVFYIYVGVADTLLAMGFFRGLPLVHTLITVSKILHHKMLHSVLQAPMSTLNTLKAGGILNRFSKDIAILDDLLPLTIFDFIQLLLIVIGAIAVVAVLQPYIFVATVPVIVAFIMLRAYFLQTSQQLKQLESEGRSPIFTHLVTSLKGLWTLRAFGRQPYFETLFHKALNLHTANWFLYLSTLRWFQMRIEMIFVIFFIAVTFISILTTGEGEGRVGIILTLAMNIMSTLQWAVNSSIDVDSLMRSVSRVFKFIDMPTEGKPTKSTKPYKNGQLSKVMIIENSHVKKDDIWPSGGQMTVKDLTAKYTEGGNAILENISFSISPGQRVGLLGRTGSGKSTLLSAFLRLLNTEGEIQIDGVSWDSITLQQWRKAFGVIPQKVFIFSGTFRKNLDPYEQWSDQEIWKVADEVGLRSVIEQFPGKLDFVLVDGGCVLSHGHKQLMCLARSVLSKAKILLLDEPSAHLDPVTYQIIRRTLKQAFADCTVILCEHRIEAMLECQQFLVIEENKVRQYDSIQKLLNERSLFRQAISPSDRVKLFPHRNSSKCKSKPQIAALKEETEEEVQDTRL
Assay: Ussing chamber assay of CFTR-mediated short-circuit currents, Assay D (single concentration of 1 μM)
Assay type: cell-based
Conditions: with 44 nM potentiator and 18 μM Tezacaftor, 20% human serum; for D activity at 1 μM (%): 18-24 hours
Description: Ussing chamber experiments were performed using human bronchial epithelial (HBE) cells derived from CF subjects heterozygous for F508del and a minimal function CFTR mutation (F508del/MF-HBE) and cultured as previously described (Neuberger T, Burton B, Clark H, Van Goor F Methods Mol Biol 2011:741:39-54). After four days the apical media was removed, and the cells were grown at an air liquid interface for >14 days prior to use.
To isolate the CFTR-mediated short-circuit (ISC) current, F508del/MF-HBE grown on Costar® Snapwell™ cell culture inserts were mounted in an Ussing chamber and the transepithelial ISC was measured under voltage-clamp recording conditions (Vhold=0 mV) at 37° C. The basolateral solution contained (in mM) 145 NaCl, 0.83 K2HPO4, 3.3 KH2PO4, 1.2 MgCl2, 1.2 CaCl2, 10 Glucose, 10 HEPES (pH adjusted to 7.4 with NaOH) and the apical solution contained (in mM) 145 NaGluconate, 1.2 MgCl2, 1.2 CaCl2, 10 glucose, 10 HEPES (pH adjusted to 7.4 with NaOH) and 30 μM amiloride to block the epithelial sodium channel. Forskolin (20 μM) was added to the apical surface to activate CFTR, followed by apical addition of a CFTR inhibitor cocktail consisting of BPO, GlyH-101, and CFTR inhibitor 172 (each at 20 μM final assay concentration) to specifically isolate CFTR currents. The CFTR-mediated ISC (μA/cm^2) for each condition was determined from the peak forskolin response to the steady-state current following inhibition.
The activity of the CFTR corrector compounds on the CFTR-mediated ISC was determined in Ussing chamber studies as described above. The F508del/MF-HBE cell cultures were either incubated with the corrector compounds at a range of concentrations in combination with 33 nM (6R,12R)-17-amino-12-methyl-6,15-bis(trifluoromethyl)-13,19-dioxa-3,4,18-triazatricyclo[12.3.1.12,5]nonadeca-1(18),2,4,14,16-pentaen-6-ol and 18 μM Tezacaftor or were incubated with the corrector compounds at a single fixed concentration of 1 μM in combination with 44 nM (6R,12R)-17-amino-12-methyl-6,15-bis(trifluoromethyl)-13,19-dioxa-3,4,18-triazatricyclo[12.3.1.12,5]nonadeca-1(18),2,4,14,16-pentaen-6-ol and 18 μM Tezacaftor for 18-24 hours at 37° C. and in the presence of 20% human serum. The concentration of corrector compounds with 44 nM or 33 nM (6R,12R)-17-amino-12-methyl-6,15-bis(trifluoromethyl)-13,19-dioxa-3,4,18-triazatricyclo[12.3.1.12,5]nonadeca-1(18),2,4,14,16-pentaen-6-ol and 18 μM Tezacaftor during the 18-24 hours incubations was kept constant throughout the Ussing chamber measurement of the CFTR-mediated ISC to ensure compounds were present throughout the entire experiment. The efficacy and potency of the putative F508del correctors was compared to that of the known Vertex corrector, (14S)-8-[3-(2-{Dispiro[2.0.2.1]heptan-7-yl}ethoxy)-1H-pyrazol-1-yl]-12,12-dimethyl-2λ^6-thia-3,9,11,18,23-pentaazatetracyclo[17.3.1.111,14.05,10]tetracosa-1(22),5,7,9,19(23),20-hexaene-2,2,4-trione, in combination with 18 μM Tezacaftor and 1 μM Ivacaftor.
• Assay A: 0.1 μM to 25 μM, 6 concentrations • Assay B: 0.00001 μM to 25 μM, 12 concentrations • Assay C: 0.026 μM to 25 μM, 6 concentrations • Assay D: Activity at single concentration of 1 μM

D activity at 1 μM (%) | D act. at 1 μM (%) | Compound
+++ (+++ is >60%) | – | Cc1cccc(C)c1-c1cc2nc(n1)NS(=O)(=O)c1cccc(c1)C(=O)N(Cc1cnc3oc(C(C)C)cc3n1)[C@H](COC1CCCC1)CO2 [Compound I-120]
– | +++ (+++ is >60%) | Cc1cccc(C)c1-c1cc2nc(n1)NS(=O)(=O)c1cccc(c1)C(=O)N(Cc1cnc3oc(C(C)(C)C)cc3n1)[C@H](CC(C)C)CO2 [IV-6]
+++ (+++ is >60%) | – | Cc1cccc(C)c1-c1cc2nc(n1)NS(=O)(=O)c1cccc(c1)C(=O)N(Cc1cnc3cc(C(C)C)n(C)c3n1)[C@H](C[C@@H]1CCCCO1)CO2 [Compound I-15, (11R)-6-(2,6-dimethylphenyl)-12-[(6-isopropyl-5-methyl-pyrrolo[2,3-b]pyrazin-3-yl)methyl]-2,2-dioxo-11-[[(2S)-tetrahydropyran-2-yl]methyl]-9-oxa-2λ^6-thia-3,5,12,19-tetrazatricyclo[12.3.1.14,8]nonadeca-1(18),4(19),5,7,14,16-hexaen-13-one]
+++ (+++ is >60%) | – | Cc1cccc(C)c1-c1cc2nc(n1)NS(=O)(=O)c1cccc(c1)C(=O)N(Cc1nc3cc(C(C)(C)C)oc3cc1F)[C@H](COC(C)C)CO2 [Compound I-242]
+++ (+++ is >60%) | – | Cc1cccc(C)c1-c1cc2nc(n1)NS(=O)(=O)c1cccc(c1)C(=O)N(Cc1cnc3cn(C(C)C)nc3n1)[C@H](COC(C)C)CO2 [Compound I-132]
+++ (+++ is >60%) | – | Cc1cccc(C)c1-c1cc2nc(n1)NS(=O)(=O)c1cccc(c1)C(=O)N(Cc1cnc3oc(C4(C)CCC4)cc3n1)[C@H](COC(C)C)CO2 [Compound I-144]
+++ (+++ is >60%) | – | Cc1cccc(C)c1-c1cc2nc(n1)NS(=O)(=O)c1cccc(c1)C(=O)N(Cc1cnc3oc(C4CC4)cc3n1)[C@H](CC(C)C)CO2 [Compound I-156]
+++ (+++ is >60%) | – | Cc1cccc(C)c1-c1cc2nc(n1)NS(=O)(=O)c1cccc(c1)C(=O)N(Cc1cnc3oc(C(C)C)cc3n1)[C@H](COC1CC1)CO2 [Compound I-109]
– | +++ (+++ is >60%) | Cc1cccc(C)c1-c1cc2nc(n1)NS(=O)(=O)c1cccc(c1)C(=O)N(Cc1ncc3cc(C4CC4)n(C)c3n1)[C@H](COC(C)C)CO2 [IV-29]

Continued, molecule first:

Compound | D activity at 1 μM (%) | D act. at 1 μM (%)
Cc1cccc(C)c1-c1cc2nc(n1)NS(=O)(=O)c1cccc(c1)C(=O)N(Cc1cnc3oc(C(C)C)c(C)c3n1)[C@H](COC1CCCC1)CO2 [Compound I-119] | +++ (+++ is >60%) | –
Cc1cccc(C)c1-c1cc2nc(n1)NS(=O)(=O)c1cccc(c1)C(=O)N(Cc1nc3c(cc1F)nc(C(C)C)n3C)[C@H](CC1(C)CC1)CO2 [Compound I-79] | +++ (+++ is >60%) | –
Cc1cccc(CC(C)C)c1-c1nc2nc(c1C)OC[C@@H](CC(C)(C)C)N(Cc1cnc3oc(C(C)(C)C)cc3n1)C(=O)c1cccc(c1)S(=O)(=O)N2 (atropisomer, axis not shown) [Compound I-238] | +++ (+++ is >60%) | –
Cc1cccc(C)c1-c1cc2nc(n1)NS(=O)(=O)c1cccc(c1)C(=O)N(Cc1cn3cccc(C(C)C)c3n1)[C@H](CC(C)(C)C)CO2 [III-5, (11R)-6-(2,6-dimethylphenyl)-11-(2,2-dimethylpropyl)-12-[(8-isopropylimidazo[1,2-a]pyridin-2-yl)methyl]-2,2-dioxo-9-oxa-2λ^6-thia-3,5,12,19-tetrazatricyclo[12.3.1.14,8]nonadeca-1(18),4(19),5,7,14,16-hexaen-13-one] | +++ (+++ is >60%) | –
Cc1cccc(C)c1-c1cc2nc(n1)NS(=O)(=O)c1cccc(c1)C(=O)N(Cc1nn(C(C)C)c3ccccc13)[C@H](CC(C)(C)C)CO2 [III-17] | +++ (+++ is >60%) | –
Cc1cccc(C)c1-c1nc2nc(c1C)OC[C@@H](COC(C)C)N(Cc1cnc3oc(C4CC4)cc3n1)C(=O)c1cccc(c1)S(=O)(=O)N2 [Compound I-181] | +++ (+++ is >60%) | –
Cc1cccc(C)c1-c1nc2nc(c1C)OC[C@@H](CC1(C)CC1)N(Cc1cnc3cc(C4(C)CC4)n(C)c3n1)C(=O)c1cccc(c1)S(=O)(=O)N2 [Compound I-230] | +++ (+++ is >60%) | –
Cc1cccc(C)c1-c1cc2nc(n1)NS(=O)(=O)c1cccc(c1)C(=O)N(Cc1cnc3oc(C4CC4)cc3n1)[C@@H](CC1CC(C)(C)C1)CO2 (single isomer, unassigned) [Compound I-165, 12-[(6-Cyclopropylfuro[2,3-b]pyrazin-2-yl)methyl]-11-[(3,3-dimethylcyclobutyl)methyl]-6-(2,6-dimethylphenyl)-2,2-dioxo-9-oxa-2λ^6-thia-3,5,12,19-tetrazatricyclo[12.3.1.14,8]nonadeca-1(18),4(19),5,7,14,16-hexaen-13-one] | +++ (+++ is >60%) | –
Cc1cccc(CCC(C)C)c1-c1nc2nc(c1C)OC[C@@H](CC(C)(C)C)N(Cc1cnc3oc(C4CC4)cc3n1)C(=O)c1cccc(c1)S(=O)(=O)N2 (atropisomer, axis not shown) [Compound I-205] | +++ (+++ is >60%) | –
COC1(C[C@@H]2COc3cc(-c4c(C)cccc4C)nc(n3)NS(=O)(=O)c3cccc(c3)C(=O)N2Cc2cnc3oc(C(C)C)cc3n2)CCC1 [Compound I-76] | +++ (+++ is >60%) | –
COCc1cc2nc(CN3C(=O)c4cccc(c4)S(=O)(=O)Nc4nc(cc(-c5c(C)cccc5C)n4)OC[C@H]3CC3(C)CC3)cnc2o1 [IV-16, (11R)-6-(2,6-dimethylphenyl)-12-[[6-(methoxymethyl)furo[2,3-b]pyrazin-2-yl]methyl]-11-[(1-methylcyclopropyl)methyl]-2,2-dioxo-9-oxa-2λ^6-thia-3,5,12,19-tetrazatricyclo[12.3.1.14,8]nonadeca-1(18),4(19),5,7,14,16-hexaen-13-one] | – | +++ (+++ is >60%)
Cc1cccc(C)c1-c1cc2nc(n1)NS(=O)(=O)c1cccc(c1)C(=O)N(Cc1cnc3sc(C4CC4)cc3n1)[C@H](CC1(C)CC1)CO2 [IV-41] | – | +++ (+++ is >60%)
Cc1cccc(C)c1-c1cc2nc(n1)NS(=O)(=O)c1cccc(c1)C(=O)N(Cc1cnc3nc(C4CC4)n(C)c3n1)[C@H](CC(C)(C)C)CO2 [Compound I-141] | +++ (+++ is >60%) | –
Cc1cccc(CC(C)C)c1-c1nc2nc(c1C)OC[C@@H](CC13CC(C1)C3)N(Cc1cnc3oc(C(C)(C)C)cc3n1)C(=O)c1cccc(c1)S(=O)(=O)N2 [Compound I-248] | +++ (+++ is >60%) | –
Cc1cccc(C)c1-c1cc2nc(n1)NS(=O)(=O)c1cccc(c1)C(=O)N(Cc1cnc3oc(C(C)C)cc3n1)[C@H](CC1(F)CCC1)CO2 [Compound I-124] | +++ (+++ is >60%) | –
Cc1cccc(C)c1-c1cc2nc(n1)NS(=O)(=O)c1cccc(c1)C(=O)N(Cc1cnc3oc(C(C)C)c(C)c3n1)[C@H](CC(C)(C)F)CO2 [Compound I-48] | +++ (+++ is >60%) | –
Cc1cccc(C)c1-c1nc2nc(c1C)OC[C@@H](COC(C)C)N(Cc1cnc3oc(C(C)(C)C)cc3n1)C(=O)c1cccc(c1)S(=O)(=O)N2 [Compound I-216] | +++ (+++ is >60%) | –
Cc1cccc(C)c1-c1nc2nc(c1C)OC[C@@H](CC(C)(C)C)N(Cc1nc3cc(C4(C)CC4)oc3cc1F)C(=O)c1cccc(c1)S(=O)(=O)N2 [Compound I-236] | +++ (+++ is >60%) | –
Cc1cccc(C)c1-c1cc2nc(n1)NS(=O)(=O)c1cccc(c1)C(=O)N(Cc1ncc3oc(C(C)(C)C)cc3n1)[C@H](CC1(C)CC1)CO2 [Compound I-252] | +++ (+++ is >60%) | –
